The values below come from US6277851A, “Bicyclic amino-pyrazinone compounds” (priority 1999, dated 2001).

For assay [1], the system named is human plasma. Put plainly: Anti-coagulant activity, activated cephalin time (ACT) in human plasma. Type of assay: biochemical. As to conditions: 37° C. The procedure: (§1) In order to evaluate the anti-coagulant activity of the compounds of the invention, the thrombin time (TT) and activated cephalin time (ACT) were determined from human plasma samples. An ST4 coagulometer (Diagnostica Stago, France) was used. Plasma, deficient in platelets and lyophilised (Stago), is taken up in distilled water. The TT is obtained using the reagent Prest Thrombin and the ACT using the reagent PTT Automate […]. […] Under those conditions, the TT is of the order of 18 seconds and the ACT is of the order of 12 seconds. The activity of an antagonist is evaluated by its capacity to prolong the TT and the ACT relative to the control. The effect of the inhibitors is expressed by the concentration in μM that doubles the coagulation time (Ctt2).

In another assay the target is uPA (Homo sapiens, UniProt P00749). As to the kind of experiment: Inhibition of fibrinolysis serine proteases: uPA. The class given is biochemical. Particulars: fibrinolysis protease. The procedure: (§2) Inhibitors, enzymes and substrates are diluted in the same buffer ([…] phosphate buffer, pH 7.4, containing 0.12 M sodium chloride and 0.05% of bovine serum albumin) and then distributed on a polystyrene microtitre plate in a volume of 50 μl. The fibrin formed by the thrombin or by the paranitroanilide released by the action of the serine protease is measured using a spectrophotometer at 405 nm after from 15 to 30 minutes' reaction at 20° C. Table 3 below gives in nM the concentration of the compounds that inhibits 50% of the enzymatic activity (IC50) of the fibrinolysis proteases.

Assay [2] relates to human plasma. As to the kind of experiment: Anti-coagulant activity, thrombin time (TT) in human plasma. As to conditions: 37° C. Type of assay: biochemical. The procedure:
as §1

Assay [3] concerns dog plasma. Put plainly: Anti-coagulant activity after administration per os to dogs, TT. Type of assay: in vivo. Particulars: p.o., 10 mg/kg. The procedure: (§3) […] The coagulation times (TT, ACT) are determined from dog plasma samples 10 minutes before and 30 min, 1 hour, 2 hours, 4 hours and 6 hours after administration of the products.
For the next assay, the target named is t-PA (Homo sapiens, UniProt P00750). As to the kind of experiment: Inhibition of fibrinolysis serine proteases: t-PA. Type of assay: biochemical. Particulars: fibrinolysis protease. The method, then: as §2
The next assay has as its target T1, human plasmin (Homo sapiens, UniProt P00747).
T1 construct: purchased Stago
As to the kind of experiment: Inhibition of fibrinolysis serine proteases: plasmin. The class given is biochemical. As to conditions: human plasmin 2 nM, substrate S 2403 0.50 mM, 20° C., pH 7.4. The method, then: as §2

Assay [4] relates to dog plasma. As to the kind of experiment: Anti-coagulant activity after administration per os to dogs, ACT. The class given is in vivo. Particulars: p.o., 10 mg/kg. The procedure: as §3
The next assay concerns the target T2, human thrombin (Homo sapiens, UniProt P00734).
T2 construct: purchased Sigma
Put plainly: Inhibition of human thrombin (fibrinogen substrate, fibrin formation). Type of assay: biochemical. As to conditions: human thrombin 0.7 nM, 10 min preincubation, 20° C., pH 7.4. The procedure:
as §2, with “Table 2” for “Table 3”, “the thrombin compared with the control without product.” for “the fibrinolysis proteases.”

T1 sequence (P00747 581-810 limits assumed): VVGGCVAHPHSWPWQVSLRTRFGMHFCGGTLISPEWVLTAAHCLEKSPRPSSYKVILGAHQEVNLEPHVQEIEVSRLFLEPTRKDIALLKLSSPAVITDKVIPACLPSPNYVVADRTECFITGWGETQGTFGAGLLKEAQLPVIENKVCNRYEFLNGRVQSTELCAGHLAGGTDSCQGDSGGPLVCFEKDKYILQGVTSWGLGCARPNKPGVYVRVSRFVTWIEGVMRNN
t-PA, sequence (P00750 36-562): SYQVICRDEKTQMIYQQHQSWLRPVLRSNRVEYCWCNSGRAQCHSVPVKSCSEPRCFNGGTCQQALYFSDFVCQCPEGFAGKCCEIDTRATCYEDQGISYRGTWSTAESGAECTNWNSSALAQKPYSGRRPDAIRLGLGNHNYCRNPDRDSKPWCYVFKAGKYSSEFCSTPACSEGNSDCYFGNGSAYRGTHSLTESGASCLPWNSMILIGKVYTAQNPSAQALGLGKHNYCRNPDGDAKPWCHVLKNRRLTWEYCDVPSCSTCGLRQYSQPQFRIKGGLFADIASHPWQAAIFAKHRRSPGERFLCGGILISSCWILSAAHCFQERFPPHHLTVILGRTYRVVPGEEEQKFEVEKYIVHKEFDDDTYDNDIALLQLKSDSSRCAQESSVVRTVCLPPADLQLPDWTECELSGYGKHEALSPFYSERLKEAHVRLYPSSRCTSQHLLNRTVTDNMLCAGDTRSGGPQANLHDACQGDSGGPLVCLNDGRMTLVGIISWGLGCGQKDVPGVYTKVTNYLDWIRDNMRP

In the case of `COc1ccc(C(CNc2ncc3n(c2=O)C(C(=O)NCc2ccc(N)nc2C)CC3)c2ccc(OC)cc2)cc1.Cl.Cl` (centres unmarked) [Example 98, N-[(6-Amino-2-methyl-3-pyridyl)-methyl]-3-[2,2-bis-(4-methoxy-phenyl)-ethylamino]-4-oxo-4,6,7,8-tetrahydropyrrolo[1,2-a]pyrazine-6-carboxamide dihydrochloride], the “ACT Ctt2 (concentration that doubles the coagulation time)” value in the assay on human plasma [1] was 3.54 µM. Also, the IC50 was more than 33 µM against uPA, more than 33 µM on t-PA, more than 33 µM against human plasmin and 0.008 µM on human thrombin. In addition, the “TT Ctt2 (concentration that doubles the coagulation time)” value in the assay on human plasma [2] turned out to be 0.33 µM. Moreover, the “Maximum TT increase (number of times by which the initial time has been increased)” value in the assay with dog plasma [3] came out at 6.1 times. In addition, in the assay with dog plasma [4], the “Maximum ACT increase (number of times by which the initial time has been increased)” value was found to be 1.4 times.

As a reminder, the IC50 is the concentration at which inhibition is half-maximal.
